According to US20200377885A1, “COMPOSITIONS AND METHODS FOR THE GENERATION OF NEURONS AND USES THEREOF” (Washington University, priority 2017, published 2020):
Entries after “also recorded” stand apart in the source; their conditions may differ.

How the values were obtained:
[1] = tested on: GFP-74Q-expressing HEF cells; assay: Inclusion body formation in GFP-74Q-expressing HEFs after proteasome inhibition; format: cell-based, human; conditions: 5 μM, 24 hours later, vs DMSO
Description: Because the findings contrasted with previous studies that report the lack of mHTT aggregates in iPSC-derived neurons from HD patients, it was decided to directly test if altering the cellular state of adult HD fibroblasts to an embryonic-like stage, a process that effectively erases aging markers, would affect the aggregation propensity of mHTT in HD-MSNs. HD-iPSCs were derived from adult HD fibroblasts and these stem cells were differentiated back into fibroblasts using a method for generating human embryonic fibroblasts (HEFs) (see e.g., FIG. 26A and FIG. 27A). […] HD.40-HEFs expressed fibroblast markers vimentin and fibronectin (see e.g., FIG. 26B). […] Upon direct conversion of HD.40-HEFs to MSNs (human embryonic MSNs, heMSNs), little to no aggregated mHTT was detectable in HD-heMSNs at PID 21 (see e.g., FIG. FIGS. 24B and 24C). […] It was then decided to investigate differences in mHTT aggregation propensity to elucidate the contribution of aging to protein aggregation in HD. […] To directly test if proteasome activity was preventing the formation of inclusions in HEFs, GFP-74Q-expressing HEF cells were treated with the proteasome inhibitor lactacystin, and assessed the presence of inclusions 24 hours later. […]

HD-MSNs [2] = assay: Spontaneous cell death of HD-MSNs by SYTOX green dead-cell staining; format: cell-based, human; conditions: 0.5 μM added at 30 days post induction, assessed at PID 35, vs DMSO
Description: (§1) In addition, Hoechst 33342 solution (Thermo Fisher Scientific) was added as a counterstain to label all nuclei at a final concentration of 1 μg/ml in culture media. Samples were incubated for at least 10 minutes in 37° C. Images were captured using a Leica DMI 400B inverted microscope with Leica Application Suite (LAS) Advanced Fluorescence. Three images were taken from random areas of each coverslip for at least three biological replicates per experiment. Quantification performed by counting number of SYTOX-positive cells over total Hoechst signal.
(§2) The ATM-Kinase inhibitor KU-60019 was obtained from Abcam (ab144817), solubilized in DMSO and directly added to the cell culture media for a final concentration of 0.5 μM at 30 days post miR-9/9*-124 induction, then cell death was assessed by SYTOX at PID 35. Controls were treated with the same volume of DMSO but no drug. At day 35, cells treated with DMSO or KU-60019 also were treated with 1 mM of H2O2 for three hours. SYTOX green/Hoechst stain was added as already described and imaged for scoring.

HD-MSNs [3] = assay: H2O2-induced oxidative stress cell death of HD-MSNs (SYTOX green/Hoechst); format: cell-based, human; conditions: 0.5 μM, 1 mM H2O2 for three hours at day 35, vs DMSO
Description: as §1, §2

ATM = ATM (Homo sapiens, UniProt Q13315); conditions: earlier findings; cited from earlier work
ATM, sequence (Q13315 whole entry, species assumed): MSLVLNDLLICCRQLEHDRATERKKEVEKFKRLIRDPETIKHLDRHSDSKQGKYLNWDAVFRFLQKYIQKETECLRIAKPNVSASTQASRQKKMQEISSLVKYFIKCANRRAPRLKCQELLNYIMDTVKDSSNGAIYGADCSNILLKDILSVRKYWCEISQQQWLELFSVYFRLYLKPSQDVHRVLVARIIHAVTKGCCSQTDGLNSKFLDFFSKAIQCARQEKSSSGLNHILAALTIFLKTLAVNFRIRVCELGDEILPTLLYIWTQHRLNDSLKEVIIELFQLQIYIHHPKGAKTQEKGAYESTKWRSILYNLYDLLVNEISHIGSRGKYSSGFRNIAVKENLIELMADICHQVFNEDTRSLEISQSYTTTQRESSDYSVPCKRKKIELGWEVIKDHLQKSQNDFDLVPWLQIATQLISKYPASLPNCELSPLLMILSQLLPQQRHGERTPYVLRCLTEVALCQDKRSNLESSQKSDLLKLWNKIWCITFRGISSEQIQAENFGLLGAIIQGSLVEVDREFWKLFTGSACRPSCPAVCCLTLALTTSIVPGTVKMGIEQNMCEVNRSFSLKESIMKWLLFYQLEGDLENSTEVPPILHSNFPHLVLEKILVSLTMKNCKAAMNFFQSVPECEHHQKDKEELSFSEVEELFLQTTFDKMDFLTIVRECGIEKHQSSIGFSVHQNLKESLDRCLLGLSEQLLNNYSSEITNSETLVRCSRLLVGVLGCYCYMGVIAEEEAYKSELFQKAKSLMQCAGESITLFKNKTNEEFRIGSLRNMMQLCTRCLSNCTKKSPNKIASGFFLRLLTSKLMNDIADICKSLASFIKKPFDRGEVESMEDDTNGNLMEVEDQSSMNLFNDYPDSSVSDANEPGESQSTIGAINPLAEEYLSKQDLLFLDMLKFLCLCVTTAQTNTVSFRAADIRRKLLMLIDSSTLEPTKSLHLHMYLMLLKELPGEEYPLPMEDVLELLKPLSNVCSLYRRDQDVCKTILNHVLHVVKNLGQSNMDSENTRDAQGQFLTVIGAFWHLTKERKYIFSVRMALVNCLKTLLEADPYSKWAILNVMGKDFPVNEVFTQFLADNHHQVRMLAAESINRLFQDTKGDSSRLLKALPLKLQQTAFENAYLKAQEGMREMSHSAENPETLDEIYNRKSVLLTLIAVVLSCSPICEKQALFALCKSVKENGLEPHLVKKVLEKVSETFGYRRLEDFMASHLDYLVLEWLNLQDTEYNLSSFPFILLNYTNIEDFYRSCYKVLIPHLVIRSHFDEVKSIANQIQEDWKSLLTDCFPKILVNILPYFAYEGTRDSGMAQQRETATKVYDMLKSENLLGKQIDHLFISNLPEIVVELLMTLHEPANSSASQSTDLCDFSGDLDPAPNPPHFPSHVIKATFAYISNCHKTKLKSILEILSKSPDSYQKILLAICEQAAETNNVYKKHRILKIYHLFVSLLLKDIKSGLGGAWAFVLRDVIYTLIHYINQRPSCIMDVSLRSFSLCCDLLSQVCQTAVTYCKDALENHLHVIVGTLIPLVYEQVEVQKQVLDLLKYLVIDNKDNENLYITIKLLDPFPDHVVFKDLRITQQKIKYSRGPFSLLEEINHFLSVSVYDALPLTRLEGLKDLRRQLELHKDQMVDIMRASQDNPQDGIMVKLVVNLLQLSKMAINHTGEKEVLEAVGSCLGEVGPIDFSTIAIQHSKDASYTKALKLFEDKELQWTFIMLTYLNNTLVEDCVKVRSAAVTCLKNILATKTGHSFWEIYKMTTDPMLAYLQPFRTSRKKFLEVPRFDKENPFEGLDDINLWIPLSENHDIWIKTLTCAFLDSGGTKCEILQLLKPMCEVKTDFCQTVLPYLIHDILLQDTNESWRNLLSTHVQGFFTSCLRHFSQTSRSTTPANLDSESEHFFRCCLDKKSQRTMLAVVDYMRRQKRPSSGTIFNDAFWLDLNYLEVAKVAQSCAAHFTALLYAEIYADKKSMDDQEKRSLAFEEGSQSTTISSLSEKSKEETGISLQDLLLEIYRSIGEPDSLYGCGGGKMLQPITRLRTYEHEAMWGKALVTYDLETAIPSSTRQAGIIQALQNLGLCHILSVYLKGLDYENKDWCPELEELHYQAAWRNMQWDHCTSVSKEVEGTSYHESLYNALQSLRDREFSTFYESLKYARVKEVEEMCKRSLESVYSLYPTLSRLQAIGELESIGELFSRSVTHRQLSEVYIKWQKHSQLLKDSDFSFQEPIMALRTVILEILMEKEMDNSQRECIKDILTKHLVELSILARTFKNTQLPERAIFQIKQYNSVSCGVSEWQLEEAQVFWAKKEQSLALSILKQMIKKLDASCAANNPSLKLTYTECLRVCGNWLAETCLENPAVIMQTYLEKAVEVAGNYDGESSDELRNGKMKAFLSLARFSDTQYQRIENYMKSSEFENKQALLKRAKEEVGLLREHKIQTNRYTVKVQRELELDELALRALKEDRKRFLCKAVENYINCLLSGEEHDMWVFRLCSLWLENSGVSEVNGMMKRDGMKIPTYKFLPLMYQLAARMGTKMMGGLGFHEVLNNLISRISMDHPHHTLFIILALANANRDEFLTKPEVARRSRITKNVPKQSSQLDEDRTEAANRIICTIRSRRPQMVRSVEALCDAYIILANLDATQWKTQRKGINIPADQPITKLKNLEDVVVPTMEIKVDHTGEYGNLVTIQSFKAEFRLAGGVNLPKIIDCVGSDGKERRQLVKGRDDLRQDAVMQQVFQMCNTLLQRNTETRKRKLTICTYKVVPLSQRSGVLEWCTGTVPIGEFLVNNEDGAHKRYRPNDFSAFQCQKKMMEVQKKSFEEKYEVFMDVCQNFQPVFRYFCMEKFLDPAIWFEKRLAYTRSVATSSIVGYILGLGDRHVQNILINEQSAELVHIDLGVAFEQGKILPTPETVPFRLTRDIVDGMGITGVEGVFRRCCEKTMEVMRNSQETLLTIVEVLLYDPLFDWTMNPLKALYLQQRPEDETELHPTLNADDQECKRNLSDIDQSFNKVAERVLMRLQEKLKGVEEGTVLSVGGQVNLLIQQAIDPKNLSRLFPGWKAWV

Compound: CC(=O)N[C@@H](CSC(=O)[C@]1([C@@H](O)C(C)C)NC(=O)[C@H](C)[C@@H]1O)C(=O)O [lactacystin]
- number of cells bearing inclusions (IBs) [1]: induces IBs
- number of cells bearing inclusions (IBs) ([1]; listed as Lactacystin): significantly increased

Compound: C[C@@H]1CN(CC(=O)Nc2ccc3c(c2)Cc2cccc(-c4cc(=O)cc(N5CCOCC5)o4)c2S3)C[C@H](C)O1 [KU60019]
- levels of spontaneous cell death (SYTOX-positive cells over Hoechst) (HD-MSNs [2]): significantly reduced; also recorded: reduces cell death levels
- levels of stress-induced cell death (H2O2-induced oxidative stress) (HD-MSNs [3]): significantly reduced; also recorded: protects HD-MSNs against H2O2-induced oxidative stress
- mHTT-induced cell death (ATM): reduce mHTT-induced cell death
